{"source": "patent US10799507B2", "about": "“5-(7H-pyrrolo[2,3-d]pyrimidin-4-yl)-5-azaspiro[2.5]octane-8-carboxylic acid derivatives as novel JAK kinase inhibitors” (LEO Pharma A/S, priority 2017, dated 2020)", "key": {"[1]": {"target": "JAK3 (Homo sapiens (Human), UniProt P52333)", "sequence (P52333 822-1111)": "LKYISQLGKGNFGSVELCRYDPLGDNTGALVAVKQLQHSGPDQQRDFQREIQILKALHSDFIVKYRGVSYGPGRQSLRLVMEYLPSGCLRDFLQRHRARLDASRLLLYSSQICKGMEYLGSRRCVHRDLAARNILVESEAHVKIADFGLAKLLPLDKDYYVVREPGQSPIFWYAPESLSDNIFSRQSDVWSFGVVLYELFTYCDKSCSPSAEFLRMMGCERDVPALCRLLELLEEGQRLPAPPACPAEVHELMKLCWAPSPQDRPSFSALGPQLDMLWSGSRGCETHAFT", "test": "JAK kinase assay (HTRF), JAK3", "type": "biochemical", "conditions": "catalytic domain, ATP at Km (2 μM)", "summary_of_the_method": "(§1)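 HTRF read-out of biotinylated TK peptide phosphorylation (1 μM) after a 20-30 min RT reaction in pH 7.0 Hepes buffer with 5 mM MgCl2 and 0.75% DMSO. JAK3 (His-tagged catalytic domain) used 2 μM ATP; TYK2 (GST-tagged, aa 871-1187) used 13 μM ATP plus 50 nM SEB, each at ATP Km.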"}, "[2]": {"target": "JAK2 (Homo sapiens (Human), UniProt O60674)", "sequence (O60674 849-1124)": "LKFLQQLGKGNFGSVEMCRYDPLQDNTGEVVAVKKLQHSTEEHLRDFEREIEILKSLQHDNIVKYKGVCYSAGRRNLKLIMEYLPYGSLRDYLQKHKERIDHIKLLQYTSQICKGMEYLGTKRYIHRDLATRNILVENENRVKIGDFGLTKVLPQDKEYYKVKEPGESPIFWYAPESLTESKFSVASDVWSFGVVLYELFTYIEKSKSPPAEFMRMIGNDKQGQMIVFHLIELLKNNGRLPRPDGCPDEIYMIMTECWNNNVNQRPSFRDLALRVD", "test": "JAK kinase assay (HTRF), JAK2", "type": "biochemical", "conditions": "catalytic domain, ATP at Km (4 μM)", "summary_of_the_method": "(§2)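 Catalytic-domain human JAK1 (GST-tagged, aa 850-1154) or His-tagged JAK2, baculovirus-expressed, phosphorylated 1 µM biotinylated TK peptide at Km ATP (JAK1 7 µM, 10 mM MgCl2, 50 nM SEB; JAK2 4 µM, 5 mM MgCl2) in pH 7.0 Hepes, 20-30 min RT. EDTA stop; overnight streptavidin-XL665/cryptate HTRF read.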"}, "[3]": {"target": "TYK2 (Homo sapiens (Human), UniProt P29597)", "sequence (P29597 871-1187)": "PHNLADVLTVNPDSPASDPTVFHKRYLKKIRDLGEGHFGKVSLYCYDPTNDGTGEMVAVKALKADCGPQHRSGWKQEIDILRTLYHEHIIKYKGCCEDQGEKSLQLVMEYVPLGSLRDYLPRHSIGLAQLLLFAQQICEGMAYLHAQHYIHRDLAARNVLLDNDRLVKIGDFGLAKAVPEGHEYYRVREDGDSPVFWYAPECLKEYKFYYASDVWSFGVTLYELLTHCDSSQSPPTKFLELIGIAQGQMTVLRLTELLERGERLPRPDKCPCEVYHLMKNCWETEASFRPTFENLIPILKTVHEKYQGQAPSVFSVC", "test": "JAK kinase assay (HTRF), TYK2", "type": "biochemical", "conditions": "catalytic domain, ATP at Km (13 μM)", "summary_of_the_method": "as §1"}, "[4]": {"target": "JAK1 (Homo sapiens (Human), UniProt P23458)", "sequence (P23458 850-1154)": "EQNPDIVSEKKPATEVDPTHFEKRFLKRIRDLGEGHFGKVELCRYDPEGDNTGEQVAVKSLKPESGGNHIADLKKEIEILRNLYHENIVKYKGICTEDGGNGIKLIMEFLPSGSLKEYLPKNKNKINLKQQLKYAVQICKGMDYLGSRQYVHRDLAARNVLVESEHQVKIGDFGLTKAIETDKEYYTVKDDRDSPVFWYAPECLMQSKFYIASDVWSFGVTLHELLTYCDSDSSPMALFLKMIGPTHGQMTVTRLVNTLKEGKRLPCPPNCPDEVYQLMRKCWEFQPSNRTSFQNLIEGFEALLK", "test": "JAK kinase assay (HTRF), JAK1", "type": "biochemical", "conditions": "catalytic domain, ATP at Km (7 μM)", "summary_of_the_method": "as §2"}, "[5]": {"test": "in vitro metabolic stability in human liver microsomes", "type": "in vitro ADME", "conditions": "human, liver microsomes, 0.5 μM compound, 0.5 mg/mL microsomes, NADPH, 40 min, 37° C.; read-out: Human liver microsome Clapp (apparent intrinsic clearance)", "summary_of_the_method": "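Compounds at 0.5 μM incubated in duplicate with human liver microsomes (0.5 mg/mL), phosphate buffer and NADPH at 37 °C for 40 min, sampled at 0, 5, 10, 20, 40 min into cold acetonitrile. LC-TOF-MS depletion gave elimination rate constant, from which apparent intrinsic clearance (Clapp) was calculated.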"}}, "data": [{"smiles": "C[C@H](NC(=O)[C@H]1CCN(c2ncnc3[nH]ccc23)CC12CC2)[C@@H](O)c1ccc(F)c(F)c1", "note": "[Example 149, (8S)-N-[(1S,2S)-2-(3,4-difluorophenyl)-2-hydroxy-1-methyl-ethyl]-5-(7H-pyrrolo[2,3-d]pyrimidin-4-yl)-5-azaspiro[2.5]octane-8-carboxamide]", "values": [{"measurement": "EC50", "setting": "[1]", "result": 0.6, "unit": "nM"}, {"measurement": "EC50", "setting": "[2]", "result": 200, "unit": "nM"}, {"measurement": "EC50", "setting": "[3]", "result": 4.2, "unit": "nM"}, {"measurement": "EC50", "setting": "[4]", "result": 0.4, "unit": "nM"}, {"measurement": "CLint scaled at 0.5 μM", "setting": "[5]", "result": "> 200", "unit": "mL/min/kg"}]}, {"smiles": "O=C(OCC1CC(F)(F)C1)C1CCN(c2ncnc3[nH]ccc23)CC12CC2", "note": "(stereo not shown) [Example 153, (3,3-difluorocyclobutyl)methyl 5-(7H-pyrrolo[2,3-d]pyrimidin-4-yl)-5-azaspiro[2.5]octane-8-carboxylate]", "values": [{"measurement": "EC50", "setting": "[1]", "result": 8.9, "unit": "nM"}, {"measurement": "EC50", "setting": "[2]", "result": 3.2, "unit": "nM"}, {"measurement": "EC50", "setting": "[3]", "result": 68, "unit": "nM"}, {"measurement": "EC50", "setting": "[4]", "result": 2.3, "unit": "nM"}, {"measurement": "CLint scaled at 0.5 μM", "setting": "[5]", "result": 160, "unit": "mL/min/kg"}]}, {"smiles": "O=C(OCC1CC(F)(F)C1)[C@H]1CCN(c2ncnc3[nH]ccc23)CC12CC2", "note": "[Example 154, (3,3-difluorocyclobutyl)methyl (8S)-5-(7H-pyrrolo[2,3-d]pyrimidin-4-yl)-5-azaspiro[2.5]octane-8-carboxylate]", "values": [{"measurement": "EC50", "setting": "[1]", "result": 5.1, "unit": "nM"}, {"measurement": "EC50", "setting": "[2]", "result": 1.7, "unit": "nM"}, {"measurement": "EC50", "setting": "[3]", "result": 15.7, "unit": "nM"}, {"measurement": "EC50", "setting": "[4]", "result": 0.9, "unit": "nM"}, {"measurement": "CLint scaled at 0.5 μM", "setting": "[5]", "result": 149, "unit": "mL/min/kg"}]}, {"smiles": "O=C(OCC1CC(F)(F)C1)[C@@H]1CCN(c2ncnc3[nH]ccc23)CC12CC2", "note": "[Example 155, (3,3-difluorocyclobutyl)methyl (8R)-5-(7H-pyrrolo[2,3-d]pyrimidin-4-yl)-5-azaspiro[2.5]octane-8-carboxylate]", "values": [{"measurement": "EC50", "setting": "[1]", "result": 144, "unit": "nM"}, {"measurement": "EC50", "setting": "[2]", "result": 58, "unit": "nM"}, {"measurement": "EC50", "setting": "[3]", "result": 1280, "unit": "nM"}, {"measurement": "EC50", "setting": "[4]", "result": 30, "unit": "nM"}, {"measurement": "CLint scaled at 0.5 μM", "setting": "[5]", "result": "> 200", "unit": "mL/min/kg"}]}, {"smiles": "O=C(OCC1(CO)CC1)[C@H]1CCN(c2ncnc3[nH]ccc23)CC12CC2", "note": "[Example 156, [1-(hydroxymethyl)cyclopropyl]methyl (8S)-5-(7H-pyrrolo[2,3-d]pyrimidin-4-yl)-5-azaspiro[2.5]octane-8-carboxylate]", "values": [{"measurement": "EC50", "setting": "[1]", "result": 20.4, "unit": "nM"}, {"measurement": "EC50", "setting": "[2]", "result": 5.4, "unit": "nM"}, {"measurement": "EC50", "setting": "[3]", "result": 30, "unit": "nM"}, {"measurement": "EC50", "setting": "[4]", "result": 4, "unit": "nM"}, {"measurement": "CLint scaled at 0.5 μM", "setting": "[5]", "result": 94, "unit": "mL/min/kg"}]}, {"smiles": "O=C(OCC1(CO)CCC1)[C@H]1CCN(c2ncnc3[nH]ccc23)CC12CC2", "note": "[Example 157, [1-(hydroxymethyl)cyclobutyl]methyl (8S)-5-(7H-pyrrolo[2,3-d]pyrimidin-4-yl)-5-azaspiro[2.5]octane-8-carboxylate]", "values": [{"measurement": "EC50", "setting": "[1]", "result": 6.6, "unit": "nM"}, {"measurement": "EC50", "setting": "[2]", "result": 2.1, "unit": "nM"}, {"measurement": "EC50", "setting": "[3]", "result": 9, "unit": "nM"}, {"measurement": "EC50", "setting": "[4]", "result": 0.8, "unit": "nM"}, {"measurement": "CLint scaled at 0.5 μM", "setting": "[5]", "result": "> 200", "unit": "mL/min/kg"}]}, {"smiles": "O=C(OCC1(CO)CCCC1)[C@H]1CCN(c2ncnc3[nH]ccc23)CC12CC2", "note": "[Example 159, [1-(hydroxymethyl)cyclopentyl]methyl (8S)-5-(7H-pyrrolo[2,3-d]pyrimidin-4-yl)-5-azaspiro[2.5]octane-8-carboxylate]", "values": [{"measurement": "EC50", "setting": "[1]", "result": 3.1, "unit": "nM"}, {"measurement": "EC50", "setting": "[2]", "result": 1.3, "unit": "nM"}, {"measurement": "EC50", "setting": "[3]", "result": 5.1, "unit": "nM"}, {"measurement": "EC50", "setting": "[4]", "result": 0.5, "unit": "nM"}, {"measurement": "CLint scaled at 0.5 μM", "setting": "[5]", "result": "> 200", "unit": "mL/min/kg"}]}, {"smiles": "O=C(OCC1(CO)CC(F)(F)C1)[C@H]1CCN(c2ncnc3[nH]ccc23)CC12CC2", "note": "[Example 160, [3,3-difluoro-1-(hydroxymethyl)cyclobutyl]methyl (8S)-5-(7H-pyrrolo[2,3-d]pyrimidin-4-yl)-5-azaspiro[2.5]octane-8-carboxylate]", "values": [{"measurement": "EC50", "setting": "[1]", "result": 1.8, "unit": "nM"}, {"measurement": "EC50", "setting": "[2]", "result": 0.8, "unit": "nM"}, {"measurement": "EC50", "setting": "[3]", "result": 3.7, "unit": "nM"}, {"measurement": "EC50", "setting": "[4]", "result": 0.3, "unit": "nM"}, {"measurement": "CLint scaled at 0.5 μM", "setting": "[5]", "result": 121, "unit": "mL/min/kg"}]}, {"smiles": "O=C(OCC1(CO)CS(=O)(=O)C1)[C@H]1CCN(c2ncnc3[nH]ccc23)CC12CC2", "note": "[Example 162, [3-(hydroxymethyl)-1,1-dioxo-thietan-3-yl]methyl (8S)-5-(7H-pyrrolo[2,3-d]pyrimidin-4-yl)-5-azaspiro[2.5]octane-8-carboxylate]", "values": [{"measurement": "EC50", "setting": "[1]", "result": 1.5, "unit": "nM"}, {"measurement": "EC50", "setting": "[2]", "result": 0.6, "unit": "nM"}, {"measurement": "EC50", "setting": "[3]", "result": 3.6, "unit": "nM"}, {"measurement": "EC50", "setting": "[4]", "result": 0.2, "unit": "nM"}, {"measurement": "CLint scaled at 0.5 μM", "setting": "[5]", "result": "< 10", "unit": "mL/min/kg"}]}, {"smiles": "N#CCC1(COC(=O)[C@H]2CCN(c3ncnc4[nH]ccc34)CC23CC3)CC1", "note": "[Example 163, [1-(cyanomethyl)cyclopropyl]methyl (8S)-5-(7H-pyrrolo[2,3-d]pyrimidin-4-yl)-5-azaspiro[2.5]octane-8-carboxylate]", "values": [{"measurement": "EC50", "setting": "[1]", "result": 13, "unit": "nM"}, {"measurement": "EC50", "setting": "[2]", "result": 3.8, "unit": "nM"}, {"measurement": "EC50", "setting": "[3]", "result": 25, "unit": "nM"}, {"measurement": "EC50", "setting": "[4]", "result": 3.1, "unit": "nM"}, {"measurement": "CLint scaled at 0.5 μM", "setting": "[5]", "result": "> 200", "unit": "mL/min/kg"}]}, {"smiles": "N#CCC1(COC(=O)C2CCN(c3ncnc4[nH]ccc34)CC23CC3)CC1", "note": "(stereo not shown) [Example 164, [1-(cyanomethyl)cyclopropyl]methyl 5-(7H-pyrrolo[2,3-d]pyrimidin-4-yl)-5-azaspiro[2.5]octane-8-carboxylate]", "values": [{"measurement": "EC50", "setting": "[1]", "result": 19, "unit": "nM"}, {"measurement": "EC50", "setting": "[2]", "result": 5, "unit": "nM"}, {"measurement": "EC50", "setting": "[3]", "result": 70, "unit": "nM"}, {"measurement": "EC50", "setting": "[4]", "result": 4, "unit": "nM"}, {"measurement": "CLint scaled at 0.5 μM", "setting": "[5]", "result": "> 200", "unit": "mL/min/kg"}]}]}
